From patent US20060069132A1, “Azolecarboxamide herbicides” (priority 2004, published 2006)
Like-named read-outs stand apart in the source and are kept apart here.

Experiments:
barnyardgrass [1] = assay: Test B pre-/postemergence herbicide test; format: in vivo, Echinochloa crus-galli; details: Echinochloa crus-galli; for pest or weed control at 125 g/ha: 125 g ai/ha; for pest or weed control at 500 g/ha: 500 g ai/ha
Procedure, shortened: (§1)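 Plants compared with untreated controls 13–15 days post-treatment and given a visual 0–100 injury score. Applications: preemergence to seeds; postemergence at 1- to 4-leaf (2–18 cm); paddy species flooded, 2-leaf stage. Vehicle non-phytotoxic, surfactant included.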

Surinam grass = assay: Test B pre-/postemergence herbicide test; format: in vivo, Urochloa decumbens; details: Urochloa decumbens; for pest or weed control at 125 g/ha: 125 g ai/ha; for pest or weed control at 500 g/ha: 500 g ai/ha
Procedure, shortened: (§2)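 Flooded paddy rice and barnyardgrass were treated at the 2-leaf stage; upland plantings received compound either on sown seed or on 1- to 4-leaf seedlings. All were kept 13–15 days in a greenhouse and scored visually, 0–100, relative to untreated plants.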

cocklebur = assay: Test B pre-/postemergence herbicide test; format: in vivo, Xanthium strumarium; details: Xanthium strumarium; for pest or weed control at 125 g/ha: 125 g ai/ha; for pest or weed control at 500 g/ha: 500 g ai/ha
Procedure, shortened: as §1

corn = assay: Test B pre-/postemergence herbicide test; format: in vivo, Zea mays; details: Zea mays; for plant injury at 125 g/ha: 125 g ai/ha
Procedure, shortened: as §2

large crabgrass = assay: Test B pre-/postemergence herbicide test; format: in vivo, Digitaria sanguinalis; details: Digitaria sanguinalis; for pest or weed control at 125 g/ha: 125 g ai/ha; for pest or weed control at 500 g/ha: 500 g ai/ha
Procedure, shortened: as §2

giant foxtail = assay: Test B pre-/postemergence herbicide test; format: in vivo, Setaria faberi; details: Setaria faberi, 336 h; for pest or weed control at 125 g/ha: 125 g ai/ha; for pest or weed control at 500 g/ha: 500 g ai/ha
Procedure, shortened: as §2

lambsquarters = assay: Test B pre-/postemergence herbicide test; format: in vivo, Chenopodium album; details: Chenopodium album, 336 h; for pest or weed control at 125 g/ha: 125 g ai/ha; for pest or weed control at 500 g/ha: 500 g ai/ha
Procedure, shortened: as §2

morningglory = assay: Test B pre-/postemergence herbicide test; format: in vivo, Ipomoea coccinea; details: Ipomoea, 336 h; for pest or weed control at 125 g/ha: 125 g ai/ha; for pest or weed control at 500 g/ha: 500 g ai/ha
Procedure, shortened: as §1

pigweed = assay: Test B pre-/postemergence herbicide test; format: in vivo, Amaranthus retroflexus; details: Amaranthus retroflexus, 336 h; for pest or weed control at 125 g/ha: 125 g ai/ha; for pest or weed control at 500 g/ha: 500 g ai/ha
Procedure, shortened: as §2

velvetleaf = assay: Test B pre-/postemergence herbicide test; format: in vivo, Abutilon theophrasti; details: Abutilon theophrasti, 336 h; for pest or weed control at 125 g/ha: 125 g ai/ha; for pest or weed control at 500 g/ha: 500 g ai/ha
Procedure, shortened: as §2

wheat = assay: Test B postemergence herbicide test; format: in vivo, Triticum aestivum; details: Triticum aestivum, post-emergence, 336 h, postemergence, read-out: Wheat plant response rating
Procedure, shortened: (§3)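 Visual ratings, 0 (no effect) to 100 (complete control), made versus controls after 13–15 d greenhouse. Paddy plants treated at 2-leaf stage; postemergence plants at 1- to 4-leaf stage, 2–18 cm tall.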

wild oat = assay: Test B postemergence herbicide test; format: in vivo, Avena fatua; details: Avena fatua, post-emergence, 336 h, postemergence, read-out: Oat, Wild plant response rating
Procedure, shortened: as §3

rice = assay: Test B flooded paddy test; format: in vivo, Oryza sativa; details: Oryza sativa, 336 h, 1000 g ai/ha, scale 0 to 100 (0 no effect, 100 complete control), read-out: Rice plant response rating
Procedure, shortened: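 After treating 2-leaf paddy plants or 2–18 cm postemergence plants (1 to 4 leaves) with formulated chemical, researchers kept them in a greenhouse for 13–15 days. Effects were judged visually versus controls: 0 indicates none, 100 total control.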

ducksalad = assay: Test B flooded paddy test; format: in vivo, Heteranthera limosa; details: Heteranthera limosa, 336 h, 1000 g ai/ha, scale 0 to 100 (0 no effect, 100 complete control), read-out: Ducksalad plant response rating
Procedure, shortened: (§4)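 Formulated test chemicals went onto postemergence plants measuring 2 to 18 cm, at one to four leaves. For the paddy assay, species had reached two leaves. Scoring took place 13–15 days later by eye, relative to untreated plants, using 0 for no effect up to 100 for full control.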

barnyardgrass [2] = assay: Test B flooded paddy test; format: in vivo, Echinochloa crus-galli; details: Echinochloa crus-galli, 336 h, 1000 g ai/ha, scale 0 to 100 (0 no effect, 100 complete control), read-out: Barnyardgrass plant response rating
Procedure, shortened: as §4

[3] = post-emergence, postemergence, visual rating, scale 0 (no effect) to 100 (complete control), read-out: Barnyardgrass plant response rating
[4] = post-emergence, postemergence, visual rating, scale 0 (no effect) to 100 (complete control), read-out: Cocklebur plant response rating
[5] = 125 g ai/ha, visual rating, scale 0 (no effect) to 100 (complete control)
[6] = 500 g ai/ha, scale 0 to 100, 0 is no effect, 100 is complete control

CCN1N=C(C(C)(C)C)CC1C(=O)Nc1cc(C(=O)N(C)C)ccc1F (centres unmarked) [Compound 268, N-[5-[(dimethylamino)carbonyl]-2-fluorophenyl]-3-(1,1-dimethylethyl)-1-ethyl-4,5-dihydro-1H-pyrazole-5-carboxamide]
pest or weed control at 125 g/ha (barnyardgrass [1]; [3]): 0% | pest or weed control at 500 g/ha (barnyardgrass [1]; [3]): 30% | pest or weed control at 125 g/ha (barnyardgrass [1]; pre-emergence, 0 = no effect, 100 = complete control, read-out: Barnyardgrass plant response rating (0 to 100 scale)): 100% | pest or weed control at 500 g/ha (barnyardgrass [1]; pre-emergence, visual rating, 0 = no effect, 100 = complete control, read-out: Plant response rating, Barnyardgrass): 100% | pest or weed control at 125 g/ha (Surinam grass; post-emergence, postemergence, visual rating, scale 0 (no effect) to 100 (complete control), read-out: Surinam Grass plant response rating): 10% | pest or weed control at 500 g/ha (Surinam grass; post-emergence, postemergence, scale 0 to 100, 0 is no effect, 100 is complete control, read-out: Surinam Grass plant response rating): 50% | pest or weed control at 125 g/ha (Surinam grass; pre-emergence, 0 = no effect, 100 = complete control, read-out: Surinam Grass plant response rating (0 to 100 scale)): 80% | pest or weed control at 500 g/ha (Surinam grass; pre-emergence, visual rating, 0 = no effect, 100 = complete control, read-out: Plant response rating, Surinam Grass): 100% | pest or weed control at 125 g/ha (cocklebur; [4]): 20% | pest or weed control at 500 g/ha (cocklebur; [4]): 50% | pest or weed control at 125 g/ha (cocklebur; pre-emergence, 0 = no effect, 100 = complete control, read-out: Cocklebur plant response rating (0 to 100 scale)): 80% | pest or weed control at 500 g/ha (cocklebur; pre-emergence, visual rating, 0 = no effect, 100 = complete control, read-out: Plant response rating, Cocklebur): 90% | plant injury at 125 g/ha (corn; post-emergence, postemergence, visual rating, scale 0 (no effect) to 100 (complete control), read-out: Corn plant response rating): 20% | plant injury at 500 g/ha (corn; post-emergence, postemergence, 500 g ai/ha, scale 0 to 100, 0 is no effect, 100 is complete control, read-out: Corn plant response rating): 30% | plant injury at 125 g/ha (corn; pre-emergence, 0 = no effect, 100 = complete control, read-out: Corn plant response rating (0 to 100 scale)): 80% | Corn plant response rating (crop injury, 0 = no effect, 100 = complete kill) at 500 g/ha (corn; pre-emergence, 500 g ai/ha, visual rating, 0 = no effect, 100 = complete control): 90% | pest or weed control at 125 g/ha (large crabgrass; post-emergence, postemergence, visual rating, scale 0 (no effect) to 100 (complete control), read-out: Crabgrass, Large plant response rating): 0% | pest or weed control at 500 g/ha (large crabgrass; post-emergence, postemergence, scale 0 to 100, 0 is no effect, 100 is complete control, read-out: Crabgrass, Large plant response rating): 20% | pest or weed control at 125 g/ha (large crabgrass; pre-emergence, 0 = no effect, 100 = complete control, read-out: Crabgrass, Large plant response rating (0 to 100 scale)): 100% | pest or weed control at 500 g/ha (large crabgrass; pre-emergence, visual rating, 0 = no effect, 100 = complete control, read-out: Plant response rating, Crabgrass, Large): 100% | pest or weed control at 125 g/ha (giant foxtail; post-emergence, postemergence, visual rating, scale 0 (no effect) to 100 (complete control), read-out: Foxtail, Giant plant response rating): 10% | pest or weed control at 500 g/ha (giant foxtail; post-emergence, postemergence, scale 0 to 100, 0 is no effect, 100 is complete control, read-out: Foxtail, Giant plant response rating): 20% | pest or weed control at 125 g/ha (giant foxtail; pre-emergence, 0 = no effect, 100 = complete control, read-out: Foxtail, Giant plant response rating (0 to 100 scale)): 100% | pest or weed control at 500 g/ha (giant foxtail; pre-emergence, visual rating, 0 = no effect, 100 = complete control, read-out: Plant response rating, Foxtail, Giant): 100% | pest or weed control at 125 g/ha (lambsquarters; post-emergence, postemergence, visual rating, scale 0 (no effect) to 100 (complete control), read-out: Lambsquarters plant response rating): 60% | pest or weed control at 500 g/ha (lambsquarters; post-emergence, postemergence, scale 0 to 100, 0 is no effect, 100 is complete control, read-out: Lambsquarters plant response rating): 70% | pest or weed control at 125 g/ha (lambsquarters; pre-emergence, 0 = no effect, 100 = complete control, read-out: Lambsquarters plant response rating (0 to 100 scale)): 100% | pest or weed control at 500 g/ha (lambsquarters; pre-emergence, visual rating, 0 = no effect, 100 = complete control, read-out: Plant response rating, Lambsquarters): 100% | pest or weed control at 125 g/ha (morningglory; post-emergence, postemergence, visual rating, scale 0 (no effect) to 100 (complete control), read-out: Morningglory plant response rating): 10% | pest or weed control at 500 g/ha (morningglory; post-emergence, postemergence, scale 0 to 100, 0 is no effect, 100 is complete control, read-out: Morningglory plant response rating): 20% | pest or weed control at 125 g/ha (morningglory; pre-emergence, 0 = no effect, 100 = complete control, read-out: Morningglory plant response rating (0 to 100 scale)): 0% | pest or weed control at 500 g/ha (morningglory; pre-emergence, visual rating, 0 = no effect, 100 = complete control, read-out: Plant response rating, Morningglory): 20% | pest or weed control at 125 g/ha (pigweed; post-emergence, postemergence, visual rating, scale 0 (no effect) to 100 (complete control), read-out: Pigweed plant response rating): 20% | pest or weed control at 500 g/ha (pigweed; post-emergence, postemergence, scale 0 to 100, 0 is no effect, 100 is complete control, read-out: Pigweed plant response rating): 50% | pest or weed control at 125 g/ha (pigweed; pre-emergence, 0 = no effect, 100 = complete control, read-out: Pigweed plant response rating (0 to 100 scale)): 100% | pest or weed control at 500 g/ha (pigweed; pre-emergence, visual rating, 0 = no effect, 100 = complete control, read-out: Plant response rating, Pigweed): 100% | pest or weed control at 125 g/ha (velvetleaf; post-emergence, postemergence, visual rating, scale 0 (no effect) to 100 (complete control), read-out: Velvetleaf plant response rating): 20% | pest or weed control at 500 g/ha (velvetleaf; post-emergence, postemergence, scale 0 to 100, 0 is no effect, 100 is complete control, read-out: Velvetleaf plant response rating): 60% | pest or weed control at 125 g/ha (velvetleaf; pre-emergence, 0 = no effect, 100 = complete control, read-out: Velvetleaf plant response rating (0 to 100 scale)): 100% | pest or weed control at 500 g/ha (velvetleaf; pre-emergence, visual rating, 0 = no effect, 100 = complete control, read-out: Plant response rating, Velvetleaf): 100% | plant injury at 125 g/ha (wheat; [5]): 30% | plant injury at 500 g/ha (wheat; [6]): 30% | pest or weed control at 125 g/ha (wild oat; [5]): 30% | pest or weed control at 500 g/ha (wild oat; [6]): 50% | plant injury at 1000 g/ha (rice): 90% | pest or weed control at 1000 g/ha (ducksalad): 90% | pest or weed control at 1000 g/ha (barnyardgrass [2]): 90%
